Reference: patent publication US20250115648A1 (priority 2013, published 2025)
Values joined by “and” are separate entries in the source; they are usually repeats but may differ in a detail not shown here. Equal entries are not always repeated.

What was measured:
U87 flank xenografts = tested on: U87 flank xenografts; set-up: species or system mice; conditions: mouse, in vivo
[1] = mouse, in vivo
[2] = cited from earlier work; for Peak Abs.: peak absorbance wavelength of exemplary fluorescent reporter molecule; for Peak Em.: peak emission wavelength of exemplary fluorescent reporter molecule
CD-1 mice = experiment: Activity level of CD-1 mice after injection of free peptides; conditions: high dose (200 nmol), IV, starting 3 minutes post injection

Row | Compound | Peak Abs. [2] | Peak Em. [2] | other results
1 | CC1(C)C(/C=C/C=C/C=C/C=C2\N(CCCCS(=O)(=O)[O-])c3ccc4ccccc4c3C2(C)C)=[N+](CCCCS(=O)(=O)[O-])c2ccc3ccccc3c21.[Na+] [ICG free dye, Cardiogreen (ICG)] |  |  | Targeting / detection in tumor tissue (U87 flank xenografts): not detected; Detection in fecal matter [1]: detectable in the fecal matter; Detection in liver, kidney, spleen, or brain [1]: not detectable
2 | O=S(=O)([O-])c1cc(Nc2nc(Nc3ccccc3)nc(N(CCO)CCO)n2)ccc1/C=C/c1ccc(Nc2nc(Nc3ccccc3)nc(N(CCO)CCO)n2)cc1S(=O)(=O)[O-].[Na+].[Na+] [Phorwite AR] | 360 nanometers | 430 nanometers | 
3 | CCN(CC)c1ccc(/C=C/C=C/c2cc[n+](CC(O)C[N+](C)(C)CCO)cc2)cc1.[Br-].[Br-] (stereo not drawn) [RH 795] | 530 nanometers | 712 nanometers | 
4 | O=c1ccc2nc3ccc(O)c([As]4SCCS4)c3oc-2c1[As]1SCCS1 [ReAsH (TC-ReAsH)] | 593 nanometers | 608 nanometers | 
5 | CCCN(CCCN(C)C)c1cc(/C=C2/Sc3ccccc3N2C)c2ccccc2[n+]1-c1ccccc1 [SYBR Green I] | 497 nanometers | 521 nanometers | 
6 | CN1/C(=C/c2cc[n+](CCC[N+](C)(C)CCC[N+](C)(C)CCC[n+]3ccc(/C=C4\Sc5ccccc5N4C)c4ccccc43)c3ccccc23)Sc2ccccc21.[I-].[I-].[I-].[I-] [TOTO-1] | 513 nanometers | 531 nanometers | 
7 | Cl.Cl.N=C(N)c1ccc2oc(/C=C/c3cc4cc(C(=N)N)ccc4o3)cc2c1 [True Blue] | 365 nanometers | 425 nanometers | 
8 | CCN(CC)c1ccc2c(-c3ccc(S(=O)(=O)NCCCCCC(=O)O)cc3S(=O)(=O)[O-])c3ccc(=[N+](CC)CC)cc-3oc2c1 [rhodamine Red-X] | 572 nanometers | 591 nanometers | 
9 | Allophycocyanin [APC (Allophycocyanin)] | 651 nanometers | 660 nanometers | 
10 | CFP: Exemplary fluorescent reporter molecules | 434 nanometers |  | 
11 | Carboxynaphthofluorescein | 600 nanometers | 674 nanometers | 
12 | Cascade Blue | 400 nanometers and 377 nanometers | 420 nanometers | 
13 | Chlorotoxin [KNT-01] |  |  | Activity level after free peptide injection (CD-1 mice): decrease in activity level, somnolence, and prostration
14 | Cy5.5 | 672 nanometers and 678 nanometers | 690 nanometers and 696 nanometers | 
15 | Fast Blue | 360 nanometers | 440 nanometers | 
16 | Fluo-4 | 494 nanometers | 540 nanometers | 
17 | Methoxycoumarin | 360 nanometers | 410 nanometers | 
18 | Nitrobenzoxadiazole | 465 nanometers | 510 nanometers | 
19 | Phycoerythrin [Phycoerythrin (PE, R-phycoerythrin)] | 567 nanometers | 576 nanometers | 
20 | Rhod-2 | 551 nanometers | 576 nanometers | 
21 | SYTO 9 | 482 nanometers | 500 nanometers | 
22 | SYTO 16 | 490 nanometers | 520 nanometers | 
23 | TOTO-3 | 642 nanometers | 661 nanometers | 
24 | Texas Red | 592 nanometers | 615 nanometers | 
25 | carboxy-X-rhodamine [ROX (6-ROX)] | 568 nanometers | 595 nanometers | 
26 | carboxytetramethyl-rhodamine [TAMRA] | 565 nanometers | 580 nanometers | 
